Measured values from the supplement of paper PMC10307832.

Assays:
Experiment in all cases: relative viability (nuclei count vs DMSO), 5 days (fraction); higher = more cells survive
[1] = compound: O=c1[nH]cc(F)c(=O)[nH]1 [5-Fluorouracil] + CC(=O)Nc1cccc(-n2c(=O)n(C3CC3)c(=O)c3c(Nc4ccc(I)cc4F)n(C)c(=O)c(C)c32)c1 [Trametinib] (partner 0.02 µM)
How it was run: (§1)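 Relative viability is defined as nuclei in treated wells over nuclei in vehicle wells. Duplicate plates were run and medians reported. Lung cancer cell lines in 1536-well plates were dosed by pin tool one day after seeding, with one drug or with a fixed anchor-drug dose plus five library-drug doses (not always all listed) in √10 steps, and nuclei were counted after 5 days.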

[2] = compound: O=c1[nH]cc(F)c(=O)[nH]1 [5-Fluorouracil] + CC(=O)c1c(C)c2cnc(Nc3ccc(N4CCNCC4)cn3)nc2n(C2CCCC2)c1=O [Palbociclib] (partner 0.5 µM)
How it was run: as §1

Sulindac + Lapatinib = compound: CC1=C(CC(=O)O)c2cc(F)ccc2/C1=C\c1ccc([S+](C)[O-])cc1 [Sulindac] + CS(=O)(=O)CCNCc1ccc(-c2ccc3ncnc(Nc4ccc(OCc5cccc(F)c5)c(Cl)c4)c3c2)o1 [Lapatinib] (partner 2 µM)
How it was run: as §1

[3] = compound: O=c1[nH]cc(F)c(=O)[nH]1 [5-Fluorouracil] + C[C@@H](Oc1cc(-c2cnn(C3CCNCC3)c2)cnc1N)c1c(Cl)ccc(F)c1Cl [Crizotinib] (partner 1 µM)
How it was run: as §1

Cell Line	relative viability ([1]; first compound 0.02 µM)	relative viability ([1]; first compound 0.2 µM)	relative viability ([1]; first compound 0.6325 µM)	relative viability ([1]; first compound 2 µM)	relative viability ([2]; first compound 0.02 µM)	relative viability ([2]; first compound 0.2 µM)	relative viability ([2]; first compound 0.6325 µM)	relative viability ([2]; first compound 2 µM)	relative viability (Sulindac + Lapatinib; first compound 0.08 µM)	relative viability (Sulindac + Lapatinib; first compound 0.253 µM)	relative viability (Sulindac + Lapatinib; first compound 0.8 µM)	relative viability (Sulindac + Lapatinib; first compound 2.53 µM)	relative viability (Sulindac + Lapatinib; first compound 8 µM)	relative viability ([3]; first compound 0.02 µM)	relative viability ([3]; first compound 0.2 µM)	relative viability ([3]; first compound 0.6325 µM)	relative viability ([3]; first compound 2 µM)
NCI-H2170	0.976	0.78	0.478	0.312	0.407	0.368	0.268	0.249	0.249	0.282	0.251	0.272	0.286	1.28	1.1	0.608	0.468
HCC-366	0.332	0.238	0.14	0.0725	0.404	0.332	0.154	0.0646	1.19	1.13	0.765	1.06	1.49	0.71	0.531	0.224	0.0745
NCI-H2405	0.629	0.692	0.579	0.6	0.541	0.579	0.529	0.48	1.24	1.11	0.969	1.02	1.39	0.871	0.954	0.797	0.579
COR-L 105	0.458	0.505	0.408	0.393	0.4	0.438	0.44	0.427	0.348	0.34	0.408	0.324	0.412	0.852	0.806	0.647	0.453
201T	0.715	0.563	0.305	0.284	0.376	0.347	0.294	0.256	1.05	0.974	1.04	0.997	1.07	1.02	0.948	0.384	0.287
NCI-H2228	0.628	0.685	0.441	0.326	0.79	0.733	0.509	0.356	1.4	1.3	0.575	1	0.917	0.441	0.483	0.457	0.343
LC-2-ad	1.02	0.894	0.552	0.349	0.519	0.523	0.467	0.325	1.1	1.04	0.893	1.02	1.02	0.431	0.417	0.289	0.216
NCI-H2087	0.216	0.157	0.167	0.216	0.234	0.243	0.164	0.179	1.28	1.04	1.27	1.08	1.22	0.921	0.817	0.541	0.509
NCI-H358	0.17	0.124	0.123	0.137	0.157	0.146	0.15	0.177	0.457	0.439	0.474	0.44	0.564	0.965	0.664	0.671	0.282
H3255	0.664	0.716	0.687	0.567	0.291	0.317	0.305	0.296	0.206	0.217	0.42	0.21	0.276	0.835	0.846	0.831	0.561
NCI-H23	0.483	0.331	0.285	0.211	0.527	0.551	0.325	0.245	1.26	1.17	0.996	0.98	1.3	0.613	0.619	0.415	0.305
CAL-12T	0.424	0.393	0.33	0.299	0.515	0.419	0.359	0.251	0.697	0.64	0.583	0.545	0.806	0.802	0.592	0.444	0.312
A-427	0.747	0.773	0.58	0.382	0.529	0.518	0.49	0.364	1.23	1.02	1.07	1.05	1.1	0.799	0.965	0.77	0.378
HARA	0.852	0.625	0.856	0.644	0.305	0.261	0.267	0.286	0.989	0.835		0.858	0.893	1.4	1.04	1.06	1.08
NCI-H1793	0.398	0.49	0.373	0.38	0.285	0.299	0.274	0.243	0.731	0.778	0.533	0.795	0.787				
